Consider three molecules from US8390681B1, “Computer assisted semen analyzer to analyze digital video clips received from a remote location” (LifeCell Dx, Inc., priority 2008, dated 2013).

For one test, the system named is fertilization capacity. The experiment in a line: Fertilization capacity, concentration dependence of cannabinoids. The note with it: higher concentrations.
Another test deals with mouse sperm. Briefly: Mouse sperm pre-treated with drug, then artificial insemination into the mouse uterus; fertilization and embryo development scored. Format: in vivo. From the text:
Studies show the cannabinoid implications in vivo in the mouse model. In separate experiments, mouse sperm are pre-treated with Meth-anandamide or AM-1346 and then the mouse sperm are inseminated into the mouse uterus (artificial insemination).
Each egg could be scored as 1-cell, 2-cell, 3-4 cell, 5-8 cell, morula, blastocysts or degenerated. Brief exposure of the sperm to the drug before insemination produces significant inhibition of 5 parameters. Compared to Control, the treated animals ovulate fewer ova (p<0.01, t-test). […] By Day 2, treatment produces a lower % of 2-cell eggs—again, fewer eggs are cleaving. […] The drug severely impairs fertilization and embryo development.

The next test deals with human sperm. Briefly: Human sperm vigorous swimming (Hyperactivation, computer-tracking). The format is cell-based. The source says: Fertilization assays include changes in human sperm vigorous swimming (Hyperactivation, computer-tracking), changes in % moving, and changes in the ability of drug-treated sperm to complete the acrosome reaction, and ability to bind to the human egg cover (Hemizona assay).

Where [1] appears, read: sperm pre-treated with 100 nM, Day 1.
Where [2] appears, read: sperm pre-treated with 100 nM, Day 3.

Regarding `CCCCC/C=C\C/C=C\C/C=C\C/C=C\CCCC(=O)NCCO` [Anandamide, arachidonoyl-ethanolamide], in the test on fertilization capacity, the “effect on fertilization capacity” value is reported as “trends towards reduced fertilization capacity”.
In the case of `CCCCC/C=C\C/C=C\C/C=C\C/C=C\CCCC(=O)N[C@H](C)CO` [Methanandamide, R-methanandamide], the “Number embryos per female” value with mouse sperm (sperm pre-treated with 100 nM before insemination) is 4.3 ± 0.7. Also, in the test on mouse sperm (setting [1]), the “% ova as 1-cell on Day 1” value turned out to be 91.3% and the “Number of 2-cells on Day 1” value was found to be 0.6 ± 0.2. Also, in the test with mouse sperm (setting [2]), the “% embryos >2-cell on Day 3” value amounted to 25.0% and the “% embryos degenerated on Day 3” value is 44.2%. The “effect on fertilization capacity” value in the test with fertilization capacity is on record as “biphasic effect: Higher concentrations produce inhibition”.
As to `CCCCC/C=C\C/C=C\C/C=C\C/C=C\CCCC(=O)NCc1ccoc1` [UCM], the “vigorous swimming of human sperm” value with human sperm was “blocks”.
